Experimental data reported in patent publication US9125913B2, “Bcl-2-selective apoptosis-inducing agents for the treatment of cancer and immune diseases” (AbbVie Inc., priority 2008, dated 2015).

test system: GST-Bcl-2; test: TR-FRET binding assay, Bcl-2; conditions: TR-FRET Ki values
In short: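 Compounds serially diluted in DMSO from 50 μM (2× starting concentration, 10% DMSO), mixed with GST-tagged protein, F-Bak peptide probe and Tb-labeled antibody, incubated 3 h at room temperature.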

Row | Compound | Binding selectivity ratio (Bcl-XL Ki/Bcl-2 Ki)
1 | CC1(C)CCC(CN2CCN(c3ccc(C(=O)NS(=O)(=O)c4cnc(OCC5CCOCC5)c(-c5nccs5)c4)c(Oc4ccc5[nH]ccc5c4)c3)CC2)=C(c2ccc(Cl)cc2)C1 [EXAMPLE 331, 4-(4-{[2-(4-chlorophenyl)-4,4-dimethylcyclohex-1-en-1-yl]methyl}piperazin-1-yl)-2-(1H-indol-5-yloxy)-N-{[6-(tetrahydro-2H-pyran-4-ylmethoxy)-5-(1,3-thiazol-2-yl)pyridin-3-yl]sulfonyl}benzamide] | >79.8
2 | CC(C1=C(c2ccc(Cl)cc2)CC(C)(C)CC1)N1CCN(c2ccc(C(=O)NS(=O)(=O)c3ccc(NCC4CCOCC4)c([N+](=O)[O-])c3)c(Oc3ccc4[nH]ccc4c3)c2)CC1 (stereo not shown) [EXAMPLE 253, 4-(4-{1-[2-(4-chlorophenyl)-4,4-dimethylcyclohex-1-en-1-yl]ethyl}piperazin-1-yl)-2-(1H-indol-5-yloxy)-N-({3-nitro-4-[(tetrahydro-2H-pyran-4-ylmethyl)amino]phenyl}sulfonyl)benzamide] | >4663.3
3 | CN(C)CCCNc1ccc(S(=O)(=O)NC(=O)c2ccc(N3CCN(CC4=C(c5ccc(Cl)cc5)CCC(C)(C)C4)CC3)cc2Oc2ccc3[nH]ccc3c2)cc1[N+](=O)[O-] [Example 51, 4-(4-{[2-(4-chlorophenyl)-5,5-dimethylcyclohex-1-en-1-yl]methyl}piperazin-1-yl)-N-[(4-{[3-(dimethylamino)propyl]amino}-3-nitrophenyl)sulfonyl]-2-(1H-indol-5-yloxy)benzamide] | 62.1
4 | COc1ccc(S(=O)(=O)NC(=O)c2ccc(N3CCN(Cc4ccccc4-c4ccc(Cl)cc4)CC3)cc2Oc2ccccc2)cc1 [Example 60, 4-{4-[(4′-chloro-1,1′-biphenyl-2-yl)methyl]piperazin-1-yl}-N-[(4-methoxyphenyl)sulfonyl]-2-phenoxybenzamide] | >34.9
5 | CC1(C)CCC(CN2CCN(c3ccc(C(=O)NS(=O)(=O)c4cnc(OCC5(F)CCN(C(CF)CF)CC5)c(C(F)(F)F)c4)c(Oc4cccc5[nH]ncc45)c3)CC2)=C(c2ccc(Cl)cc2)C1 [EXAMPLE 459, 4-(4-{[2-(4-chlorophenyl)-4,4-dimethylcyclohex-1-en-1-yl]methyl}piperazin-1-yl)-N-{[6-({4-fluoro-1-[2-fluoro-1-(fluoromethyl)ethyl]piperidin-4-yl}methoxy)-5-(trifluoromethyl)pyridin-3-yl]sulfonyl}-2-(1H-indazol-4-yloxy)benzamide] | 541.58
6 | CN(C)CCCOc1ccc(-c2ccc(Cl)cc2)c(CN2CCN(c3ccc(C(=O)NS(=O)(=O)c4ccc(NCC5CCOCC5)c(S(=O)(=O)C(F)(F)F)c4)c(Oc4ccccc4)c3)CC2)c1 [Example 119, 4-[4-({4′-chloro-4-[3-(dimethylamino)propoxy]-1,1′-biphenyl-2-yl}methyl)piperazin-1-yl]-2-phenoxy-N-({4-[(tetrahydro-2H-pyran-4-ylmethyl)amino]-3-[(trifluoromethyl)sulfonyl]phenyl}sulfonyl)benzamide] | 370.2
7 | CC1(C)CCC(CN2CCN(c3ccc(C(=O)NS(=O)(=O)c4ccc(NCC5CCN(C(=O)OCc6ccccc6)CC5)c([N+](=O)[O-])c4)c(Oc4ccc5[nH]ccc5c4)c3)CC2)=C(c2ccc(Cl)cc2)C1 [EXAMPLE 356, benzyl 4-({[4-({[4-(4-{[2-(4-chlorophenyl)-4,4-dimethylcyclohex-1-en-1-yl]methyl}piperazin-1-yl)-2-(1H-indol-5-yloxy)benzoyl]amino}sulfonyl)-2-nitrophenyl]amino}methyl)piperidine-1-carboxylate] | >131.6
8 | O=C(NS(=O)(=O)c1ccc(NC2CCN(S(=O)(=O)c3cccc4cccnc34)CC2)c([N+](=O)[O-])c1)c1ccc(N2CCN(Cc3ccccc3-c3ccc(Cl)cc3)CC2)cc1Oc1ccccc1 [Example 158, 4-{4-[(4′-chloro-1,1′-biphenyl-2-yl)methyl]piperazin-1-yl}-N-[(3-nitro-4-{[1-(quinolin-8-ylsulfonyl)piperidin-4-yl]amino}phenyl)sulfonyl]-2-phenoxybenzamide] | >10.2
9 | CO[C@H]1CC[C@H](CNc2ccc(S(=O)(=O)NC(=O)c3ccc(N4CCN(CC5=C(c6ccc(Cl)cc6)CC(C)(C)CC5)CC4)cc3Oc3cccc4[nH]cnc34)cc2[N+](=O)[O-])CC1 [EXAMPLE 440, Trans-2-(1H-benzimidazol-4-yloxy)-4-(4-{[2-(4-chlorophenyl)-4,4-dimethylcyclohex-1-en-1-yl]methyl}piperazin-1-yl)-N-[(4-{[(4-methoxycyclohexyl)methyl]amino}-3-nitrophenyl)sulfonyl]benzamide] | 4549.1
10 | CC1(C)CCC(CN2CCN(c3ccc(C(=O)NS(=O)(=O)c4ccc(NCC(F)(F)F)c([N+](=O)[O-])c4)c(Oc4cccc5[nH]ccc45)c3)CC2)=C(c2ccc(Cl)cc2)C1 [EXAMPLE 343, 4-(4-{[2-(4-chlorophenyl)-4,4-dimethylcyclohex-1-en-1-yl]methyl}piperazin-1-yl)-2-(1H-indol-4-yloxy)-N-({3-nitro-4-[(2,2,2-trifluoroethyl)amino]phenyl}sulfonyl)benzamide] | >1145.9
11 | CC1(C)CCC(CN2CCN(c3ccc(C(=O)NS(=O)(=O)c4ccc(OCC#CCN5CCOCC5)c([N+](=O)[O-])c4)c(Oc4ccc5[nH]ccc5c4)c3)CC2)=C(c2ccc(Cl)cc2)C1 [EXAMPLE 390, 4-(4-{[2-(4-chlorophenyl)-4,4-dimethylcyclohex-1-en-1-yl]methyl}piperazin-1-yl)-2-(1H-indol-5-yloxy)-N-({4-[(4-morpholin-4-ylbut-2-ynyl)oxy]-3-nitrophenyl}sulfonyl)benzamide] | 339.6
12 | CC1(C)CCC(CN2CCN(c3ccc(C(=O)NS(=O)(=O)c4cnc(NC5CCN(C6CC6)CC5)c(Cl)c4)c(Oc4cccc5[nH]ncc45)c3)CC2)=C(c2ccc(Cl)cc2)C1 [EXAMPLE 448, N-({5-chloro-6-[(1-cyclopropylpiperidin-4-yl)amino]pyridin-3-yl}sulfonyl)-4-(4-{[2-(4-chlorophenyl)-4,4-dimethylcyclohex-1-en-1-yl]methyl}piperazin-1-yl)-2-(1H-indazol-4-yloxy)benzamide] | 3119
13 | O=C(NS(=O)(=O)c1ccc(NCC2CCOCC2)c([N+](=O)[O-])c1)c1ccc(N2CCN(Cc3ccccc3-c3ccc(Cl)cc3)CC2)cc1Oc1cccnc1 [Example 79, 4-{4-[(4′-chloro-1,1′-biphenyl-2-yl)methyl]piperazin-1-yl}-N-({3-nitro-4-[(tetrahydro-2H-pyran-4-ylmethyl)amino]phenyl}sulfonyl)-2-(pyridin-3-yloxy)benzamide] | 47.4
14 | CO[C@H]1CC[C@@H](CNc2ccc(S(=O)(=O)NC(=O)c3ccc(N4CCN(CC5=C(c6ccc(Cl)cc6)CC(C)(C)CC5)CC4)cc3Oc3ccc4[nH]ccc4c3)cc2[N+](=O)[O-])CC1 [EXAMPLE 313, Cis-4-(4-{[2-(4-chlorophenyl)-4,4-dimethylcyclohex-1-en-1-yl]methyl}piperazin-1-yl)-2-(1H-indol-5-yloxy)-N-[(4-{[(4-methoxycyclohexyl)methyl]amino}-3-nitrophenyl)sulfonyl]benzamide] | 1500
15 | CC1(C)CCC(CN2CCN(c3ccc(C(=O)NS(=O)(=O)c4ccc(NC5CCN(C6CC6)CC5)c([N+](=O)[O-])c4)c(Oc4cccc5[nH]cnc45)c3)CC2)=C(c2ccc(Cl)cc2)C1 [EXAMPLE 451, 2-(1H-benzimidazol-4-yloxy)-4-(4-{[2-(4-chlorophenyl)-4,4-dimethylcyclohex-1-en-1-yl]methyl}piperazin-1-yl)-N-({4-[(1-cyclopropylpiperidin-4-yl)amino]-3-nitrophenyl}sulfonyl)benzamide] | 359.92
16 | CC1(C)CCC(CN2CCN(c3ccc(C(=O)NS(=O)(=O)c4ccc(S(C)(=O)=O)cc4)c(Oc4ccc5[nH]ccc5c4)c3)CC2)=C(c2ccc(Cl)cc2)C1 [EXAMPLE 382, 4-(4-{[2-(4-chlorophenyl)-4,4-dimethylcyclohex-1-en-1-yl]methyl}piperazin-1-yl)-2-(1H-indol-5-yloxy)-N-{[4-(methylsulfonyl)phenyl]sulfonyl}benzamide] | >573.9
17 | O=C(NS(=O)(=O)c1ccc(NCC2CCOCC2)c([N+](=O)[O-])c1)c1ccc(N2CCN(CC3=C(c4ccc(Cl)cc4)CCC(N4CCCC4)C3)CC2)cc1Oc1ccc2[nH]ccc2c1 (stereo not shown) [EXAMPLE 272, 4-(4-{[2-(4-chlorophenyl)-5-pyrrolidin-1-ylcyclohex-1-en-1-yl]methyl}piperazin-1-yl)-2-(1H-indol-5-yloxy)-N-({3-nitro-4-[(tetrahydro-2H-pyran-4-ylmethyl)amino]phenyl}sulfonyl)benzamide] | >58011.8
18 | CC1(C)CCC(CN2CCN(c3ccc(C(=O)NS(=O)(=O)c4ccc(NC5(CO)CCOCC5)c([N+](=O)[O-])c4)c(Oc4cccc5[nH]ccc45)c3)CC2)=C(c2ccc(Cl)cc2)C1 [EXAMPLE 241, 4-(4-{[2-(4-chlorophenyl)-4,4-dimethylcyclohex-1-en-1-yl]methyl}piperazin-1-yl)-N-[(4-{[4-(hydroxymethyl)tetrahydro-2H-pyran-4-yl]amino}-3-nitrophenyl)sulfonyl]-2-(1H-indol-4-yloxy)benzamide] | >108.3
19 | CN(C)CC(=O)N1CCO[C@H](COc2ncc(S(=O)(=O)NC(=O)c3ccc(N4CCN(CC5=C(c6ccc(Cl)cc6)CC(C)(C)CC5)CC4)cc3Oc3cccc4[nH]cnc34)cc2Cl)C1 [EXAMPLE 423, 2-(1H-benzimidazol-4-yloxy)-N-[(5-chloro-6-{[(2S)-4-(N,N-dimethylglycyl)morpholin-2-yl]methoxy}pyridin-3-yl)sulfonyl]-4-(4-{[2-(4-chlorophenyl)-4,4-dimethylcyclohex-1-en-1-yl]methyl}piperazin-1-yl)benzamide] | 756.62
